Results as given in publication PMC5222590 (Structure(London, England:1993), 2017).

Biological target: T1, FusA (Streptococcus pneumoniae, UniProt A0A0H2URD6)
T1 sequence (A0A0H2URD6 47-538): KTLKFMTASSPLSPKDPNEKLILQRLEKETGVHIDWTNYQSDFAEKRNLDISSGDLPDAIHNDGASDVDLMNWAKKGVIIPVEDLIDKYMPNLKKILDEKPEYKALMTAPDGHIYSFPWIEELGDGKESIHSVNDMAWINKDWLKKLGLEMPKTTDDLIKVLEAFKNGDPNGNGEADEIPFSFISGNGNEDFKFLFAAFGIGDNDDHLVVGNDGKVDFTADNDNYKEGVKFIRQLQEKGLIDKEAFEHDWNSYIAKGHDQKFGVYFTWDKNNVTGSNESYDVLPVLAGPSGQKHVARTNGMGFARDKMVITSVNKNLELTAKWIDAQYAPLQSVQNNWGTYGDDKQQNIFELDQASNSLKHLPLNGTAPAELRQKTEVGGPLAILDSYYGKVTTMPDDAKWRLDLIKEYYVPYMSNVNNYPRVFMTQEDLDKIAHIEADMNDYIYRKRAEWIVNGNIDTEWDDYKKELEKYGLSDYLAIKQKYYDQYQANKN
Test: ITC
Assay type: binding
Details: pH 7.4, 0.15 M NaCl, 25 °C; 1:1

OC[C@H]1O[C@@](CO)(OC[C@@]2(OC[C@@]3(O[C@H]4O[C@H](CO)[C@@H](O)[C@H](O)[C@H]4O)O[C@H](CO)[C@@H](O)[C@@H]3O)O[C@H](CO)[C@@H](O)[C@@H]2O)[C@@H](O)[C@@H]1O [GF3, nystose]
KD: FusA had submicromolar affinity for fructofuranosyl-nystose and nystose
